# Assay results as given in ChEMBL document CHEMBL1949518, “Synthesis and biological evaluation of some new 2-pyrazolines bearing benzene sulfonamide moiety as potential anti-inflammatory and anti-cancer agents” (Eur J Med Chem, 2011).
# What was measured:
# Format in all cases: functional
# [1] = system: SN12C; test: Antiproliferative activity against human SN12C cells assessed as cell growth at 10^-5 M after 48 hrs by SRB assay relative to control; settings: read-out: Activity
# [2] = system: TK-10; test: Antiproliferative activity against human TK10 cells assessed as cell growth at 10^-5 M after 48 hrs by SRB assay relative to control; settings: TK-10, 48 h, read-out: Activity
# [3] = system: HCC 2998; test: Antiproliferative activity against human HCC2998 cells assessed as cell growth at 10^-5 M after 48 hrs by SRB assay relative to control; settings: HCC 2998, 48 h, read-out: Activity
# [4] = system: OVCAR-4; test: Antiproliferative activity against human OVCAR4 cells assessed as cell growth at 10^-5 M after 48 hrs by SRB assay relative to control; settings: OVCAR-4, 48 h, read-out: Activity
# [5] = system: NCI-H226; test: Antiproliferative activity against human NCI-H226 cells assessed as cell growth at 10^-5 M after 48 hrs by SRB assay relative to control; settings: NCI-H226, 48 h, read-out: Activity
# [6] = system: U-251; test: Antiproliferative activity against human U251 cells assessed as cell growth at 10^-5 M after 48 hrs by SRB assay relative to control; settings: U-251, 48 h, read-out: Activity
# [7] = system: UACC-257; test: Antiproliferative activity against human UACC257 cells assessed as cell growth at 10^-5 M after 48 hrs by SRB assay relative to control; settings: UACC-257, 48 h, read-out: Activity
# [8] = Antiproliferative activity against human Hs 578T cells assessed as cell growth at 10^-5 M after 48 hrs by SRB assay relative to control; settings: read-out: Activity
# [9] = system: HOP-62; test: Antiproliferative activity against human HOP62 cells assessed as cell growth at 10^-5 M after 48 hrs by SRB assay relative to control; settings: HOP-62, 48 h, read-out: Activity
# [10] = system: M14; test: Antiproliferative activity against human M14 cells assessed as cell growth at 10^-5 M after 48 hrs by SRB assay relative to control; settings: M14, 48 h, read-out: Activity
# [11] = system: A498; test: Antiproliferative activity against human A498 cells assessed as cell growth at 10^-5 M after 48 hrs by SRB assay relative to control; settings: A498, 48 h, read-out: Activity
# [12] = system: RPMI-8226; test: Antiproliferative activity against human RPMI8226 cells assessed as cell growth at 10^-5 M after 48 hrs by SRB assay relative to control; settings: RPMI-8226, 48 h, read-out: Activity
# [13] = system: OVCAR-8; test: Antiproliferative activity against human OVCAR8 cells assessed as cell growth at 10^-5 M after 48 hrs by SRB assay relative to control; settings: OVCAR-8, 48 h, read-out: Activity
# [14] = system: BT-549; test: Antiproliferative activity against human BT549 cells assessed as cell growth at 10^-5 M after 48 hrs by SRB assay relative to control; settings: BT-549, 48 h, read-out: Activity
# [15] = system: 786-0; test: Antiproliferative activity against human 786-0 cells assessed as cell growth at 10^-5 M after 48 hrs by SRB assay relative to control; settings: 786-0, 48 h, read-out: Activity
# [16] = system: SK-MEL-5; test: Antiproliferative activity against human SK-MEL-5 cells assessed as cell growth at 10^-5 M after 48 hrs by SRB assay relative to control; settings: SK-MEL-5, 48 h, read-out: Activity
# [17] = system: LOX IMVI; test: Antiproliferative activity against human LOXIMVI cells assessed as cell growth at 10^-5 M after 48 hrs by SRB assay relative to control; settings: read-out: Activity
# [18] = system: K562; test: Antiproliferative activity against human K562 cells assessed as cell growth at 10^-5 M after 48 hrs by SRB assay relative to control; settings: K562, 48 h, read-out: Activity
# [19] = system: SNB-75; test: Antiproliferative activity against human SNB75 cells assessed as cell growth at 10^-5 M after 48 hrs by SRB assay relative to control; settings: SNB-75, 48 h, read-out: Activity
# [20] = system: HOP-92; test: Antiproliferative activity against human HOP92 cells assessed as cell growth at 10^-5 M after 48 hrs by SRB assay relative to control; settings: HOP-92, 48 h, read-out: Activity
# [21] = system: HT-29; test: Antiproliferative activity against human HT-29 cells assessed as cell growth at 10^-5 M after 48 hrs by SRB assay relative to control; settings: HT-29, 48 h, read-out: Activity
# [22] = system: OVCAR-5; test: Antiproliferative activity against human OVCAR5 cells assessed as cell growth at 10^-5 M after 48 hrs by SRB assay relative to control; settings: OVCAR-5, 48 h, read-out: Activity
# [23] = system: KM12; test: Antiproliferative activity against human KM12 cells assessed as cell growth at 10^-5 M after 48 hrs by SRB assay relative to control; settings: KM12, 48 h, read-out: Activity
# [24] = system: Rattus norvegicus; test: Antiinflammatory activity in Wistar rat assessed as inhibition of carrageenan-induced paw edema at 20 mg/kg, po administered 30 mins before carrageenan challenge measured after 5 hrs
# [25] = system: MDA-MB-435; test: Antiproliferative activity against human MDA-MB-435 cells assessed as cell growth at 10^-5 M after 48 hrs by SRB assay relative to control; settings: MDA-MB-435, 48 h, read-out: Activity
# [26] = system: EKVX; test: Antiproliferative activity against human EKVX cells assessed as cell growth at 10^-5 M after 48 hrs by SRB assay relative to control; settings: read-out: Activity
compound,measurement,setting,value
COc1ccc(C2CC(c3c(O)cc(C)c(Cl)c3C)=NN2c2ccc(S(N)(=O)=O)cc2)cc1 (stereo unspecified),growth at 10 µM,[1],99.4%
same,growth at 10 µM,[2],104%
same,growth at 10 µM,[3],97.6%
same,growth at 10 µM,[4],86.4%
same,growth at 10 µM,[5],98.7%
same,growth at 10 µM,[6],91.3%
same,growth at 10 µM,[7],103%
same,growth at 10 µM,[8],99%
same,growth at 10 µM,[9],78.1%
same,growth at 10 µM,[10],77.8%
same,growth at 10 µM,[11],93.2%
same,growth at 10 µM,[12],63.9%
same,growth at 10 µM,[13],101%
same,growth at 10 µM,[14],119%
same,growth at 10 µM,[15],92.5%
same,growth at 10 µM,[16],94.4%
same,growth at 10 µM,[17],70.6%
same,growth at 10 µM,[18],44.1%
same,growth at 10 µM,[19],85.1%
same,growth at 10 µM,[20],43.3%
same,growth at 10 µM,[21],109%
same,growth at 10 µM,[22],86.6%
same,growth at 10 µM,[23],75%
same,inhibition in vivo at 20 mg/kg,[24],36.4%
same,growth at 10 µM,[25],79.3%
same,growth at 10 µM,[26],70.5%
